These results are taken from ChEMBL document CHEMBL1201862, “PubChem BioAssay data set” (2004).

In one test the test system is H4. Nature of the test: Luminescence Cell-Based Dose Response HTS to Identify Activators of 5'UTR Stem-Loop Driven Prion Protein mRNA Translation in H4 Neuroglioblastoma Cells. [Related pubchem assays: 1829 (Project Summary), 1814 (Primary HTS)]. Format: functional. To be noted: Homo sapiens.
A further test has as its target T1, Caspase-3 (Homo sapiens, UniProt P42574).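 Also: Dose-response selectivity test against caspase-3 for candidate inhibitors of sentrin-specific proteases (SENPs).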
T1 sequence (P42574 whole entry): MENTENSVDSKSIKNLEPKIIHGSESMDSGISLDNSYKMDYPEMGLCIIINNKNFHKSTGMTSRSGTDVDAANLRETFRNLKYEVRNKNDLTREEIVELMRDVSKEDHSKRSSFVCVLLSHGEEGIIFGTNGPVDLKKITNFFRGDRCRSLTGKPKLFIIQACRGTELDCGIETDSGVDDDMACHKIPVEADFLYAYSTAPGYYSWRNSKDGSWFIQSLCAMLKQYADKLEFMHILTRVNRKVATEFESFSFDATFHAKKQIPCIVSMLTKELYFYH
Format: functional.

The target in test [1] is T2, Sentrin-specific protease 7 (Homo sapiens, UniProt Q9BQF6).
T2 sequence (Q9BQF6 whole entry): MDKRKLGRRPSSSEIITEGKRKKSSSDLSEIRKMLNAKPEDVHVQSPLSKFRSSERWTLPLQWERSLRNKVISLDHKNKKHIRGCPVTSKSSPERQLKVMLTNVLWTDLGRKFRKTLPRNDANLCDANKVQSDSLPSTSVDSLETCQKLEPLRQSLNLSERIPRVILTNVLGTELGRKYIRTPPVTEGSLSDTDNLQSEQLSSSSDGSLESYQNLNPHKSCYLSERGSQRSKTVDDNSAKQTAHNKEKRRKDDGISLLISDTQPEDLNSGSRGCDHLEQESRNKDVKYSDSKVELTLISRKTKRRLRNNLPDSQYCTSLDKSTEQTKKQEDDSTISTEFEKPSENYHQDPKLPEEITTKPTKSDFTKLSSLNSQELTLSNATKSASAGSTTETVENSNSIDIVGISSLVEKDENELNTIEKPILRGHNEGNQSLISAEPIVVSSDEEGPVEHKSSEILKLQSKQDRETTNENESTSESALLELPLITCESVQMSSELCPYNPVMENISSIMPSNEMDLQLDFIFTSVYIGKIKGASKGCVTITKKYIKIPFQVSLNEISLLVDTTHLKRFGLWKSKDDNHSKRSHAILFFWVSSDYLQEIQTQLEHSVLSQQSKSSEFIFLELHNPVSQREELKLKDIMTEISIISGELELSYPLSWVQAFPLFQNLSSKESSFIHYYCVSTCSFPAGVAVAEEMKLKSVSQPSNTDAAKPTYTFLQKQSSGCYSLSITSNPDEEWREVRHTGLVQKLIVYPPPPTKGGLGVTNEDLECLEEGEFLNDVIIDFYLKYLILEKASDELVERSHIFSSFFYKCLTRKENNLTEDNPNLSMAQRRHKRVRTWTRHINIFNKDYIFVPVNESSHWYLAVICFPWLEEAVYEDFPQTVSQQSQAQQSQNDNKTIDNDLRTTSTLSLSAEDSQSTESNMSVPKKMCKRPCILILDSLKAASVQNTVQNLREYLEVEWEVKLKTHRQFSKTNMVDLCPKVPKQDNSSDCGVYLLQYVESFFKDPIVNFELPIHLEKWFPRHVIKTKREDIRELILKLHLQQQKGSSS
In words: SENP7 protease inhibitors, SAR follow-up, biochemical, luminescence (AID 504497). Format: functional.

For another test, the target named is T3, Aminopeptidase N (Plasmodium falciparum FcB1/Columbia, UniProt O96935).
T3 sequence (O96935 whole entry): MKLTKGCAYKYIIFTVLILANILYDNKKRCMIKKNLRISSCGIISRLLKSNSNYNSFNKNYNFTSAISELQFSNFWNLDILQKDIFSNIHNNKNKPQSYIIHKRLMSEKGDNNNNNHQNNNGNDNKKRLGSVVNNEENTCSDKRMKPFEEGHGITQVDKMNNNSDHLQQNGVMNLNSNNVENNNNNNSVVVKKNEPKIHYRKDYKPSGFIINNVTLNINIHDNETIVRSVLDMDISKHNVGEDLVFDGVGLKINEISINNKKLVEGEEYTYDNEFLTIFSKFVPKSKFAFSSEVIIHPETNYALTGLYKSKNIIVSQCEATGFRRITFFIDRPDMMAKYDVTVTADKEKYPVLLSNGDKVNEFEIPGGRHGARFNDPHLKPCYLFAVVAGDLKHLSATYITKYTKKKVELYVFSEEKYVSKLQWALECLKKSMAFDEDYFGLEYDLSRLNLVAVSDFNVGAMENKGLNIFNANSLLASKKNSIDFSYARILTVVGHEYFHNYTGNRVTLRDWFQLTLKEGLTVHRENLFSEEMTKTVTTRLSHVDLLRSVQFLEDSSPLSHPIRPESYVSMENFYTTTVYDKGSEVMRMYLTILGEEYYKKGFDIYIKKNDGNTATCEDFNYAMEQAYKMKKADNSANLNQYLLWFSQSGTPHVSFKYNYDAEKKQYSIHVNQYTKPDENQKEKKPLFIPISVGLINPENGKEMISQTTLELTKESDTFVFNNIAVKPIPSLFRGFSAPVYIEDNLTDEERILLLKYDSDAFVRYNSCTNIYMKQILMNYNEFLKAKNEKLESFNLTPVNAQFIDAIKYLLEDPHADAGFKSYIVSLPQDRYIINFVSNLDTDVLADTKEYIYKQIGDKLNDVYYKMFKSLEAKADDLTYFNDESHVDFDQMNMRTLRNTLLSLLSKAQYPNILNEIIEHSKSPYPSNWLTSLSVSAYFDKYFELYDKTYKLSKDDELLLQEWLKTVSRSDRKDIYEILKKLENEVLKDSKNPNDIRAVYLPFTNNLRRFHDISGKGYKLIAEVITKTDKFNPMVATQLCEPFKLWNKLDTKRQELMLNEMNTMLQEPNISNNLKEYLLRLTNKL
In words: P. falciparum M1AAP inhibitors, biochemical, fluorogenic H-Leu-NHMec substrate, 1536-well (AID 1445). Details: species or system Plasmodium falciparum 3D7, 3D7.

The next test has as its target Large T antigen (Simian virus 40, UniProt P03070). Format: functional, Betapolyomavirus macacae.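 Also: Confirmatory-stage PubChem screen for compounds that inhibit SV40 T antigen.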

Each structure is given as a SMILES string. Calls of active or inactive are those of the source.

Sequence of Large T antigen (P03070 whole entry): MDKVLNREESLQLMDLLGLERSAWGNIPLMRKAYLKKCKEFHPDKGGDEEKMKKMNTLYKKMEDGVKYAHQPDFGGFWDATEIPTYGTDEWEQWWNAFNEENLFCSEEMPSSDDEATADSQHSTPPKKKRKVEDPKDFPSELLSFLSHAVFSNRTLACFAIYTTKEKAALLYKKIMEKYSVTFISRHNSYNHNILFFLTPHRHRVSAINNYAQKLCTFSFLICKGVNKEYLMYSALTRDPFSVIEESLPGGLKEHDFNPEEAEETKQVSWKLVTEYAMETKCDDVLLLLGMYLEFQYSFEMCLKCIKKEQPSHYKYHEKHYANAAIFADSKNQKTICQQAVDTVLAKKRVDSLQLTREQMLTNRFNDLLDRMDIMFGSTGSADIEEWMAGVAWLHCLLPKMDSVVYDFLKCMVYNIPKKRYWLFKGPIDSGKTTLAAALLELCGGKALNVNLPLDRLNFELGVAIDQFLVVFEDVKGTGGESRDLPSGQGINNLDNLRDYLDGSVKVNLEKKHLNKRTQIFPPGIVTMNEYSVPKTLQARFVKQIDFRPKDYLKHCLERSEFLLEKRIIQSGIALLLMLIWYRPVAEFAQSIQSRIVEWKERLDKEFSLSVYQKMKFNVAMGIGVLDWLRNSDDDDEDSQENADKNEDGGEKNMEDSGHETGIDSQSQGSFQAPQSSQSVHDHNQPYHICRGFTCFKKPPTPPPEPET

In the case of `c1ccc2c(Nc3nnc(-c4ccncc4)s3)cccc2c1`, the EC50 in the test with H4 was 13.8 µM (active). The IC50 on Caspase-3 is 18.5 µM (active).
On to `COc1cc(C(=O)c2nccc3cc(OC)c(OC)cc23)c([N+](=O)[O-])cc1OC`, for which the IC50 on Caspase-3 is 31.9 µM (active); in test [1] it was 24.6 µM (active).
`N=C1S/C(=C\c2ccc(-c3ccccc3C(=O)O)o2)C(=O)N1c1ccc2c(c1)OCO2`: the IC50 on Aminopeptidase N is 10.3 µM (active).
Take `N#Cc1c(O)nc(SCC(=O)N2c3ccccc3Sc3ccccc32)nc1-c1ccccc1`: the IC50 at Aminopeptidase N was 11.2 µM (active); at Large T antigen, 52.7 µM (active).
